According to the supplement of paper PMC10307832:

Legend:
Assay in all cases: relative viability (nuclei count vs DMSO), 5 days (fraction); higher = more cells survive
Crizotinib + Vorinostat = compound: C[C@@H](Oc1cc(-c2cnn(C3CCNCC3)c2)cnc1N)c1c(Cl)ccc(F)c1Cl [Crizotinib] + O=C(CCCCCCC(=O)Nc1ccccc1)NO [Vorinostat] (partner 1 µM)
Method in brief: (§1)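 Relative viability was taken as the ratio of nuclei in treated wells to nuclei in vehicle wells. Lung cancer cell lines in 1536-well plates received compounds by pin tool one day after seeding, either one drug alone or a fixed anchor-drug dose plus five library-drug doses (not always all listed) in √10 steps. Nuclei were counted on 4× images after 5 days of treatment, and values are medians of duplicate plates.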

Olaparib + Decitabine = compound: O=C(c1cc(Cc2n[nH]c(=O)c3ccccc23)ccc1F)N1CCN(C(=O)C2CC2)CC1 [Olaparib] + Nc1ncn([C@H]2C[C@H](O)[C@@H](CO)O2)c(=O)n1 [Decitabine] (partner 2 µM)
Method in brief: as §1

Olaparib + Crizotinib = compound: O=C(c1cc(Cc2n[nH]c(=O)c3ccccc23)ccc1F)N1CCN(C(=O)C2CC2)CC1 [Olaparib] + C[C@@H](Oc1cc(-c2cnn(C3CCNCC3)c2)cnc1N)c1c(Cl)ccc(F)c1Cl [Crizotinib] (partner 1 µM)
Method in brief: as §1

Crizotinib + Luminespib = compound: C[C@@H](Oc1cc(-c2cnn(C3CCNCC3)c2)cnc1N)c1c(Cl)ccc(F)c1Cl [Crizotinib] + CCNC(=O)c1noc(-c2cc(C(C)C)c(O)cc2O)c1-c1ccc(CN2CCOCC2)cc1 [Luminespib] (partner 0.01 µM)
Method in brief: as §1

Row | Cell Line | relative viability (Crizotinib + Vorinostat; first compound 0.01 µM) | relative viability (Crizotinib + Vorinostat; first compound 0.03162 µM) | relative viability (Crizotinib + Vorinostat; first compound 0.1 µM) | relative viability (Crizotinib + Vorinostat; first compound 0.3162 µM) | relative viability (Crizotinib + Vorinostat; first compound 1 µM) | relative viability (Olaparib + Decitabine; first compound 0.08 µM) | relative viability (Olaparib + Decitabine; first compound 0.253 µM) | relative viability (Olaparib + Decitabine; first compound 2.53 µM) | relative viability (Olaparib + Decitabine; first compound 8 µM) | relative viability (Olaparib + Crizotinib; first compound 0.08 µM) | relative viability (Olaparib + Crizotinib; first compound 0.253 µM) | relative viability (Olaparib + Crizotinib; first compound 2.53 µM) | relative viability (Olaparib + Crizotinib; first compound 8 µM) | relative viability (Crizotinib + Luminespib; first compound 0.01 µM) | relative viability (Crizotinib + Luminespib; first compound 0.03162 µM) | relative viability (Crizotinib + Luminespib; first compound 0.1 µM) | relative viability (Crizotinib + Luminespib; first compound 0.3162 µM) | relative viability (Crizotinib + Luminespib; first compound 1 µM)
1 | NCI-H460 | 0.709 | 0.69 | 0.688 | 0.852 | 0.722 | 0.114 | 0.128 | 0.0907 | 0.062 | 0.875 | 0.744 | 0.502 | 0.17 | 0.0237 | 0.0313 | 0.0367 | 0.0315 | 0.0386
2 | NCI-H520 | 0.568 | 0.68 | 0.732 | 0.774 | 0.722 | 0.467 | 0.318 | 0.365 | 0.261 | 0.739 | 0.695 | 0.781 | 0.477 | 0.212 | 0.258 | 0.243 | 0.258 | 0.231
3 | NCI-H596 | 0.638 | 0.681 | 0.742 | 0.62 | 0.748 | 0.915 | 0.9 | 0.732 | 0.632 | 0.736 | 0.866 | 1.02 | 0.833 | 0.86 | 1.18 | 0.942 | 1.18 | 1.01
4 | NCI-H647 | – | 0.71 | 0.575 | 0.764 | 0.643 | 0.293 | 0.253 | 0.227 | 0.152 | 1.23 | 0.914 | 0.923 | 0.675 | 0.2 | 0.14 | 0.146 | 0.152 | 0.153
5 | NCI-H650 | 0.528 | 0.414 | 0.396 | – | 0.444 | 0.266 | 0.293 | 0.241 | 0.281 | 0.899 | 0.713 | 0.623 | 0.615 | 0.726 | 0.75 | – | 0.798 | 0.942
6 | NCI-H661 | 0.706 | 0.777 | 0.731 | 0.841 | 0.775 | 0.454 | 0.434 | 0.4 | 0.382 | 1.06 | 0.969 | 0.944 | 0.849 | 0.832 | 0.92 | 0.892 | – | 0.908
7 | NCI-H727 | 1.16 | 1.1 | 1.3 | 1.16 | 1.37 | 0.908 | 0.858 | 0.893 | 0.805 | 0.934 | 0.737 | 0.671 | 0.48 | – | 0.346 | 0.296 | – | 0.509
8 | NCI-H838 | 0.715 | – | 0.728 | 0.687 | 0.701 | 0.416 | 0.32 | 0.354 | 0.323 | 0.882 | 0.774 | 0.779 | 0.742 | 0.289 | 0.275 | 0.312 | 0.326 | 0.254
9 | NCI-H1355 | 0.638 | 0.629 | 0.625 | 0.564 | 0.613 | 0.37 | 0.345 | 0.304 | 0.31 | 1.17 | 1.01 | 1.02 | 0.923 | 0.709 | 0.749 | 0.644 | 0.641 | 0.783
10 | NCI-H1437 | 0.832 | 0.832 | 0.857 | 0.867 | 0.849 | 0.458 | 0.391 | 0.434 | 0.386 | 1.07 | 0.814 | 0.903 | 0.618 | 1.06 | 1.15 | 1.14 | 1.17 | 1.22
11 | NCI-H1650 | 0.471 | 0.594 | 0.527 | 0.68 | 0.619 | 0.432 | 0.39 | 0.32 | 0.354 | 1.13 | 0.864 | 1.15 | 0.965 | 0.165 | 0.193 | 0.202 | 0.18 | 0.206
12 | NCI-H1651 | 0.572 | 0.424 | 0.582 | 0.398 | 0.61 | 0.356 | 0.277 | 0.224 | 0.168 | 0.882 | 0.782 | 0.669 | 0.439 | 0.793 | 0.74 | 0.831 | 1.09 | 0.942
13 | NCI-H1666 | 1.14 | 0.999 | 1.07 | 0.978 | 0.955 | 0.778 | 0.604 | 0.636 | 0.597 | 1.09 | 0.777 | 0.685 | 0.602 | 0.864 | 1 | 1.09 | 0.991 | 0.999
14 | NCI-H1734 | 0.866 | 0.787 | 0.784 | – | 0.807 | 0.418 | 0.311 | 0.237 | 0.229 | 0.691 | 0.681 | 0.647 | 0.553 | 0.213 | 0.182 | 0.209 | – | 0.193
15 | NCI-H1755 | 0.668 | 0.779 | 0.743 | 0.757 | 0.764 | 0.666 | 0.621 | 0.577 | 0.562 | 0.957 | 0.824 | 0.904 | 0.728 | 0.428 | 0.482 | 0.445 | 0.554 | 0.266
16 | NCI-H1915 | 0.601 | 0.518 | 0.502 | 0.458 | 0.517 | 0.242 | 0.239 | 0.234 | 0.196 | 0.934 | 0.774 | 0.552 | 0.445 | 0.775 | 0.817 | 0.721 | – | 0.862
17 | NCI-H1944 | 0.446 | 0.508 | 0.493 | 0.571 | 0.54 | 0.397 | 0.401 | 0.336 | 0.273 | 1.06 | 0.926 | 0.814 | 0.676 | 0.671 | 0.648 | 0.646 | 0.872 | 0.777
18 | NCI-H1975 | 0.682 | 0.693 | 0.695 | 0.708 | 0.729 | 0.339 | 0.312 | 0.331 | 0.248 | 1.04 | 0.906 | 0.945 | 0.916 | 0.144 | 0.148 | 0.167 | 0.223 | 0.178
19 | NCI-H1993 | 0.699 | 0.901 | 0.68 | 0.468 | 0.555 | 0.512 | 0.59 | 0.666 | 0.636 | 0.967 | 0.954 | 0.987 | 1.07 | 0.905 | 0.889 | – | 0.852 | –
20 | NCI-H2009 | 0.707 | 0.723 | 0.63 | 0.756 | 0.76 | 0.391 | 0.336 | 0.337 | 0.32 | 1.19 | 0.999 | 1.06 | 1.01 | 0.994 | 1.02 | 0.988 | 1.01 | 1.08
21 | NCI-H2023 | 0.573 | 0.8 | 0.568 | 0.453 | 0.621 | 0.172 | 0.143 | 0.135 | 0.126 | 0.789 | 0.661 | 0.658 | 0.574 | 0.714 | 0.754 | 0.61 | 0.58 | 0.592
22 | NCI-H2085 | 0.756 | 0.733 | – | 0.782 | 0.742 | 0.545 | 0.49 | 0.43 | 0.46 | 0.911 | 0.657 | 0.74 | 0.77 | 0.551 | 0.394 | 0.431 | – | 0.428
23 | NCI-H2087 | 0.679 | 0.689 | 0.766 | 0.94 | 0.731 | 0.249 | 0.189 | 0.262 | 0.167 | 1.02 | 0.738 | 0.78 | 0.688 | 0.18 | 0.181 | 0.168 | – | 0.134
24 | NCI-H2126 | 0.636 | 0.835 | 0.682 | 0.371 | – | 0.614 | 0.544 | 0.541 | 0.542 | 1.12 | 0.967 | 0.957 | 0.969 | 0.717 | 0.886 | – | 0.861 | 0.916
25 | NCI-H2170 | – | 0.838 | 0.746 | 0.795 | 0.828 | 0.422 | 0.369 | 0.277 | 0.253 | 1.23 | 1.15 | 1.4 | 1.11 | 0.914 | 0.806 | 0.649 | 0.606 | 0.511
26 | NCI-H2347 | 0.551 | 0.606 | 0.671 | 0.534 | 0.536 | 0.644 | 0.558 | 0.531 | 0.516 | 0.672 | 0.657 | 0.705 | 0.622 | 0.212 | 0.458 | 0.482 | 0.681 | 0.404
27 | NCI-H2405 | 0.955 | 1.01 | 1.08 | 0.535 | 0.959 | 0.681 | 0.55 | 0.458 | 0.486 | 0.948 | 0.83 | 0.769 | 0.809 | 0.629 | 0.706 | 0.697 | 0.785 | 0.806
28 | NCI-H3122 | 0.929 | 0.753 | 0.932 | 0.941 | 0.961 | 0.385 | 0.351 | 0.259 | 0.256 | 0.266 | 0.292 | 0.266 | 0.28 | 0.119 | 0.0745 | 0.0793 | 0.0767 | 0.105
29 | PC-3 [JPC-3] | 0.687 | 0.903 | 1.16 | – | 0.71 | 0.82 | – | 0.761 | 0.741 | 1 | 0.902 | 1.01 | 0.928 | 0.727 | 0.649 | 0.741 | 0.678 | 0.78
30 | PC-14 | 0.632 | 0.792 | 0.693 | 0.608 | 0.784 | 0.153 | 0.124 | 0.101 | 0.105 | 0.883 | 0.824 | 0.849 | 0.657 | 0.156 | 0.152 | 0.183 | 0.186 | 0.168
